Assay results from patent US12139520B2 (priority 2020, dated 2024).
Bridge positions count the residues as written; N and C are the ends. Square brackets hold non-standard residues; d marks the D form. Peptide text beside a SMILES is read from it. Hyp = O=C(O)[C@@H]1C[C@@H](O)CN1; Cit = NC(=O)NCCC[C@H](N)C(=O)O

Legend:
hAMY3 receptor = target: T1, hAMY3 receptor (Homo sapiens, UniProt O60896+P30988); assay: cAMP assay for in vitro receptor activation, hAMY3-R; assay type: cell-based; conditions: cAMP assay, hAMY3 receptor; read-out: hAMY3R EC50
T1 sequence (P30988 25-474): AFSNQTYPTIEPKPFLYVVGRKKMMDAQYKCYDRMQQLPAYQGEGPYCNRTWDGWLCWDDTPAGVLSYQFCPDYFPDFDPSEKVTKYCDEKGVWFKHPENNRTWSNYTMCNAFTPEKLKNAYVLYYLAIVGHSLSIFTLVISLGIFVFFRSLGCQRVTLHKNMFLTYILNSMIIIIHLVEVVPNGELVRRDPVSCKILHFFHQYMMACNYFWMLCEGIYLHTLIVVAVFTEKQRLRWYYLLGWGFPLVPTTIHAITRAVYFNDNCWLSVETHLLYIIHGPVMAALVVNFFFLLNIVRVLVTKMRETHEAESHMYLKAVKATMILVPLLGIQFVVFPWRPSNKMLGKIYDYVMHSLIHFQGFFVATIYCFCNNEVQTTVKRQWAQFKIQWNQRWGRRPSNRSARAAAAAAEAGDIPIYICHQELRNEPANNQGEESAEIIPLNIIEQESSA
T1 sequence (O60896 24-148 partner): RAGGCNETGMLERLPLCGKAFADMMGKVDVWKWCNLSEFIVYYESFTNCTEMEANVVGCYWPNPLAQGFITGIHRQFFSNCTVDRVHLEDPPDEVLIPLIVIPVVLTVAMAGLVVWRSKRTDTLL
In short: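 Graded compound concentrations were applied for 30 min at room temperature to stably hAMY3-expressing cells in DPBS, 0.05% casein, 0.5 mM IBMX; cAMP detected by TR-FRET.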

hAM1 receptor = hAM1 receptor (Homo sapiens, UniProt O60895+Q16602); assay: cAMP assay for in vitro receptor activation, hAM1-R; assay type: cell-based; conditions: cAMP assay, hAM1 receptor; read-out: hAM1R EC50
Chain of hAM1 receptor (Q16602 23-461): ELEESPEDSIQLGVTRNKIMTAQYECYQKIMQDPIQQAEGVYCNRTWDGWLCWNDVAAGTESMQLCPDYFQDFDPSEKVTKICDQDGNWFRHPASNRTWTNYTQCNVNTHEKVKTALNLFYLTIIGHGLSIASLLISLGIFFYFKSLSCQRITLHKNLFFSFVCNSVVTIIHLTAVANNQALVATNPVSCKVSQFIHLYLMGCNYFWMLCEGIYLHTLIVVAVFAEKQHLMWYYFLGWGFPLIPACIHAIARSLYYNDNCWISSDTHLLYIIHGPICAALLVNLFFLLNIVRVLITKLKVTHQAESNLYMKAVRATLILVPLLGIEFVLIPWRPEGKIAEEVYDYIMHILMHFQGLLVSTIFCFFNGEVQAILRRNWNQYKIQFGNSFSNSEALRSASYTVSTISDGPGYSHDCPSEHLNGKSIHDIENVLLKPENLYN
Chain of hAM1 receptor (O60895 43-175 partner): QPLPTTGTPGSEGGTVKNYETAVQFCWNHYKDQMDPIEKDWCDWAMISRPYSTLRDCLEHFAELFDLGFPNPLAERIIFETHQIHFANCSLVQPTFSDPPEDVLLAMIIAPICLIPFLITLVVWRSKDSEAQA
In short: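 A subcloned monoclonal line stably expressing hAM1 receptor is thawed and plated at 8000 cells/well. The assay buffer is DPBS with 0.05% casein and 0.5 mM IBMX, and receptor activation is followed by cAMP levels.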

[1] = Physical stability of peptide analogues (Thioflavin T fibrillation); assay type: physicochemical; conditions: maximum ThT signal normalized between hAMY maximum and buffer background; 40° C., shaking, four days; pH 7 per table title
In short: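 Samples are stressed at 40 °C for four days, being shaken at 700 rpm before each 10-min fluorescence reading of 4 μM Thioflavin T. Buffers were pH 4 acetate or pH 7 phosphate. Reported values are smoothed maximum ThT signals as a percentage of the hAMY-to-background range.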

| EC50 (hAMY3 receptor) [nM] | EC50 (hAM1 receptor) [nM] | Max ThT signal (%) [1] [%] | SMILES |
| --- | --- | --- | --- |
| 0.004 | > 5000 | 15.050 | CC[C@H](C)[C@H](NC(=O)[C@H](CCC(N)=O)NC(=O)[C@H](Cc1c[nH]cn1)NC(=O)[C@H](C)NC(=O)[C@H](CC(C)C)NC(=O)[C@H](Cc1c[nH]c2ccccc12)NC(=O)[C@H](CCC(N)=O)NC(=O)[C@@H](NC(=O)[C@@H](NC(=O)[C@@H]1CSSC[C@H](NC(=O)[C@@H](N)CCCCN)C(=O)N[C@@H](CC(N)=O)C(=O)N[C@@H]([C@@H](C)O)C(=O)N[C@@H](C)C(=O)N[C@@H]([C@@H](C)O)C(=O)N1)[C@@H](C)O)C(C)C)C(=O)N[C@@H](Cc1ccc(O)cc1)C(=O)N[C@@H](CCC(N)=O)C(=O)N[C@@H](Cc1ccccc1)C(=O)N[C@@H](C)C(=O)N[C@@H](CC(=O)O)C(=O)N[C@@H](CCCCN)C(=O)N[C@@H](CC(=O)O)C(=O)N[C@@H](CCCCN)C(=O)N[C@@H](CC(=O)O)C(=O)N[C@@H](CC(N)=O)C(=O)N[C@H](C(=O)N[C@@H](C)C(=O)N1CCC[C@H]1C(=O)N1CCC[C@H]1C(=O)N[C@H](C(=O)N[C@@H](CC(N)=O)C(=O)N[C@H](C(=O)NCC(=O)N[C@@H](CO)C(=O)N[C@@H](CC(N)=O)C(=O)NCC(=O)N1C[C@H](O)C[C@H]1C(N)=O)C(C)C)[C@@H](C)O)C(C)C [compound 313] (H-KCNTATCTVQWLAHQIYQFADKDKDNVAPPTNVGSNG[Hyp]-NH2; disulfide 2-7; N-terminus assumed) |
| 0.015 | > 5000 | 1.600 | CC[C@H](C)[C@H](NC(=O)[C@H](CCC(N)=O)NC(=O)[C@H](Cc1c[nH]cn1)NC(=O)[C@H](C)NC(=O)[C@H](CC(C)C)NC(=O)[C@H](Cc1c[nH]c2ccccc12)NC(=O)[C@H](CCC(N)=O)NC(=O)[C@@H](NC(=O)[C@@H](NC(=O)[C@@H]1CSSC[C@H](NC(=O)CN)C(=O)N[C@@H](CCCNC(=N)N)C(=O)N[C@@H]([C@@H](C)O)C(=O)NCC(=O)N[C@@H]([C@@H](C)O)C(=O)N1)[C@@H](C)O)C(C)C)C(=O)N[C@@H](Cc1ccc(O)cc1)C(=O)N[C@@H](CCC(N)=O)C(=O)N[C@@H](Cc1ccccc1)C(=O)N[C@H](C(=O)N[C@@H](CC(=O)O)C(=O)N[C@@H](CCCCN)C(=O)N[C@@H](CC(=O)O)C(=O)N[C@@H](CCCCN)C(=O)N[C@@H](CC(=O)O)C(=O)N[C@@H](CC(N)=O)C(=O)N[C@H](C(=O)N[C@@H](C)C(=O)N1CCC[C@H]1C(=O)N[C@@H](CCCNC(=N)N)C(=O)N[C@H](C(=O)N[C@@H](CC(N)=O)C(=O)N[C@H](C(=O)NCC(=O)N1CCC[C@H]1C(=O)N[C@@H](CCC(N)=O)C(=O)NCC(=O)N[C@@H](Cc1ccc(O)cc1)C(N)=O)C(C)C)[C@@H](C)O)C(C)C)[C@@H](C)O [compound 335] (H-GCRTGTCTVQWLAHQIYQFTDKDKDNVAPRTNVGPQGY-NH2; disulfide 2-7; N-terminus assumed) |
| 0.021 | 12 | 4.800 | CC[C@H](C)[C@H](NC(=O)[C@H](CCC(N)=O)NC(=O)[C@H](Cc1c[nH]cn1)NC(=O)[C@H](C)NC(=O)[C@H](CC(C)C)NC(=O)[C@H](CCCNC(=N)N)NC(=O)[C@H](CCC(N)=O)NC(=O)[C@@H](NC(=O)[C@@H](NC(=O)[C@@H]1CSSC[C@H](NC(=O)CN)C(=O)N[C@@H](CCCNC(=N)N)C(=O)N[C@@H](Cc2ccccc2)C(=O)NCC(=O)N[C@@H]([C@@H](C)O)C(=O)N1)[C@@H](C)O)C(C)C)C(=O)N[C@@H](Cc1ccc(O)cc1)C(=O)N[C@@H](CCC(N)=O)C(=O)N[C@@H](Cc1ccccc1)C(=O)N[C@H](C(=O)N[C@@H](CC(=O)O)C(=O)N[C@@H](CCCCN)C(=O)N[C@@H](CC(=O)O)C(=O)N[C@@H](CCCCN)C(=O)N[C@@H](CC(=O)O)C(=O)N[C@@H](CC(N)=O)C(=O)N[C@H](C(=O)N[C@@H](C)C(=O)N1CCC[C@H]1C(=O)N[C@@H](CCCNC(=N)N)C(=O)N[C@@H](CO)C(=O)N[C@@H](CC(N)=O)C(=O)N[C@H](C(=O)NCC(=O)N1CCC[C@H]1C(=O)N[C@@H](CCC(N)=O)C(=O)NCC(=O)N[C@@H](Cc1ccc(O)cc1)C(N)=O)C(C)C)C(C)C)[C@@H](C)O [compound 374] (H-GCRFGTCTVQRLAHQIYQFTDKDKDNVAPRSNVGPQGY-NH2; disulfide 2-7; N-terminus assumed) |
| 0.236 | 107 | 25.700 | CC[C@H](C)[C@H](NC(=O)[C@H](CCC(N)=O)NC(=O)[C@H](CCC(=O)O)NC(=O)[C@H](C)NC(=O)[C@H](CC(C)C)NC(=O)[C@H](Cc1c[nH]c2ccccc12)NC(=O)[C@H](CCC(N)=O)NC(=O)[C@@H](NC(=O)[C@@H](NC(=O)[C@@H]1CSSC[C@H](NC(=O)[C@@H](N)CCCCN)C(=O)N[C@@H](CC(N)=O)C(=O)N[C@@H](C)C(=O)N[C@@H](C)C(=O)N[C@@H]([C@@H](C)O)C(=O)N1)[C@@H](C)O)C(C)C)C(=O)N[C@@H](Cc1ccc(O)cc1)C(=O)N[C@@H](CCC(N)=O)C(=O)N[C@@H](Cc1ccccc1)C(=O)N[C@H](C(=O)N[C@@H](CC(=O)O)C(=O)N[C@@H](CCCCN)C(=O)N[C@@H](CC(=O)O)C(=O)N[C@@H](CCCCN)C(=O)N[C@@H](CC(=O)O)C(=O)N[C@@H](CC(N)=O)C(=O)N[C@H](C(=O)N[C@@H](C)C(=O)N1CCC[C@H]1C(=O)N1CCC[C@H]1C(=O)N[C@H](C(=O)N[C@@H](CC(N)=O)C(=O)N[C@H](C(=O)NCC(=O)N[C@@H](CO)C(=O)N[C@@H](CC(N)=O)C(=O)NCC(=O)N1C[C@H](O)C[C@H]1C(N)=O)C(C)C)[C@@H](C)O)C(C)C)[C@@H](C)O [compound 333] (H-KCNAATCTVQWLAEQIYQFTDKDKDNVAPPTNVGSNG[Hyp]-NH2; disulfide 2-7; N-terminus assumed) |
| 0.008 | > 5000 | 8.200 | CC[C@H](C)[C@H](NC(=O)[C@H](CCC(N)=O)NC(=O)[C@H](Cc1c[nH]cn1)NC(=O)[C@H](C)NC(=O)[C@H](CC(C)C)NC(=O)[C@H](CCCNC(=N)N)NC(=O)[C@H](CCC(N)=O)NC(=O)[C@@H](NC(=O)[C@@H](NC(=O)[C@@H]1CSSC[C@H](NC(=O)[C@@H](N)CCCCN)C(=O)N[C@@H](CC(N)=O)C(=O)N[C@@H]([C@@H](C)O)C(=O)N[C@@H](C)C(=O)N[C@@H]([C@@H](C)O)C(=O)N1)[C@@H](C)O)C(C)C)C(=O)N[C@@H](Cc1ccc(O)cc1)C(=O)N[C@@H](CCC(N)=O)C(=O)N[C@@H](Cc1ccccc1)C(=O)N[C@H](C(=O)N[C@@H](CC(=O)O)C(=O)N[C@@H](CCCCN)C(=O)N[C@@H](CC(=O)O)C(=O)N[C@@H](CCCCN)C(=O)N[C@@H](CC(=O)O)C(=O)N[C@@H](CC(N)=O)C(=O)N[C@H](C(=O)N[C@@H](C)C(=O)N1CCC[C@H]1C(=O)N[C@@H](C)C(=O)N[C@H](C(=O)N[C@@H](CC(N)=O)C(=O)N[C@H](C(=O)NCC(=O)N[C@@H](CO)C(=O)N[C@@H](CC(N)=O)C(=O)NCC(=O)N1C[C@H](O)C[C@H]1C(N)=O)C(C)C)[C@@H](C)O)C(C)C)[C@@H](C)O [compound 28] (H-KCNTATCTVQRLAHQIYQFTDKDKDNVAPATNVGSNG[Hyp]-NH2; disulfide 2-7; N-terminus assumed) |
| 0.034 | > 5000 | 22.650 | CC[C@H](C)[C@H](NC(=O)[C@H](CCC(N)=O)NC(=O)[C@H](Cc1c[nH]cn1)NC(=O)[C@H](C)NC(=O)[C@H](CC(C)C)NC(=O)[C@H](CCCNC(N)=O)NC(=O)[C@H](CCC(N)=O)NC(=O)[C@@H](NC(=O)[C@@H](NC(=O)[C@@H]1CSSC[C@H](NC(=O)CN)C(=O)N[C@@H](CCCNC(=N)N)C(=O)N[C@@H]([C@@H](C)O)C(=O)NCC(=O)N[C@@H]([C@@H](C)O)C(=O)N1)[C@@H](C)O)C(C)C)C(=O)N[C@@H](Cc1ccc(O)cc1)C(=O)N[C@@H](CCC(N)=O)C(=O)N[C@@H](Cc1ccccc1)C(=O)N[C@H](C(=O)N[C@@H](CC(=O)O)C(=O)N[C@@H](CCCCN)C(=O)N[C@@H](CC(=O)O)C(=O)N[C@@H](CCCCN)C(=O)N[C@@H](CC(=O)O)C(=O)N[C@@H](CC(N)=O)C(=O)N[C@H](C(=O)N[C@@H](C)C(=O)N1CCC[C@H]1C(=O)N[C@@H](CCCNC(=N)N)C(=O)N[C@@H](CO)C(=O)N[C@@H](CC(N)=O)C(=O)N[C@H](C(=O)NCC(=O)N1CCC[C@H]1C(=O)N[C@@H](CCC(N)=O)C(=O)NCC(=O)N1C[C@H](O)C[C@H]1C(N)=O)C(C)C)C(C)C)[C@@H](C)O [compound 281] (H-GCRTGTCTVQ[Cit]LAHQIYQFTDKDKDNVAPRSNVGPQG[Hyp]-NH2; disulfide 2-7; N-terminus assumed) |
